# Measured values reported in patent US11987835B2, “Amino acid-sensing diguanylate cyclase and methods of use” (priority 2019, dated 2024).
# Changes are numbered by the printed parent chain. Like-named read-outs stand apart in the source and are kept apart here.
# B1: W140/146A: Aer01 SpdE PAS/dCache variant, single residue change in the distal PAS/Cache (protein, listed as Aeromonas veronii)
# chain: MSPAKPKNTWSLITRMRLGFLLLFIPVLLLGSIYYLHMERTLRHEQQQYLIARNTQYFHTLIEPYLATLKRQFTLIYQQVNYRDFSGPEIRNGERYLQQWQAYHKVMELDYVYVGTEHRKMLIHPSWQADEKFDPRTRPAYLLAASHPGQIVWTDPYYDYTLGTLTMALARVIKDPDGKRVGVLSLDTQLTPLASWLNSRHAQSHHLGNGYQLLLNHDGLVLAHPDRERVFKPLAHPDWLARMQQPQGFFLDDASGLMVSYYRIPEQRWILLSVEPTASMQQVIDSVSINVQLMIAVACFFYLLLALLWARYFRRMLGEITLLIRTSRSGGTAYHGSRMLELAKVYEEMDAASQDFAQIRQQANQDKLTGLYNRRFFDECLQKQLNSGAPFGVVMFDLDDFKRVNDTHGHQAGDVVLKRVSKLGMNLFHEWGWFCRYGGEELVLIFRYGEEQPMLPSLLEAFRLGVEQLEWREPDLTITISGGVAFSRSGLSAKELVELADKGVYQAKREGKNRICFPLRHTPHQSAEEGVPAFGETQQQTNEG
# B2: Y157/163A: Aer01 SpdE PAS/dCache variant, single residue change in the distal PAS/Cache (protein, listed as Aeromonas veronii)
# chain: B1 chain with A140W, Y157A
# B3: SpdE-NarQ hybrid protein: SpdE tandem PAS/dCache and transmembrane domains fused to HAMP and histidine kinase signaling domain of E. coli NarQ (protein)
# chain: MSPAKPKNTWSLITRMRLGFLLLFIPVLLLGSIYYLHMERTLRHEQQQYLIARNTQYFHTLIEPYLATLKRQFTLIYQQVNYRDFSGPEIRNGERYLQQWQAYHKVMELDYVYVGTEHRKMLIHPSWQADEKFDPRTRPWYLLAASHPGQIVWTDPYYDYTLGTLTMALARVIKDPDGKRVGVLSLDTQLTPLASWLNSRHAQSHHLGNGYQLLLNHDGLVLAHPDRERVFKPLAHPDWLARMQQPQGFFLDDASGLMVSYYRIPEQRWILLSVEPTASMQQVIDSVSINVQLMIAVACFFYLLLALLWLNQLVTASQRIEHGQFDSPPLDTNLPNELGLLAKTFNQMSSELHKLYRSLEASVEEKTRDLHEAKRRLEVLYQCSQALNTSQIDVHCFRHILQIVRDNEAAEYLELNVGENWRISEGQPNPELPMQILPVTMQETVYGELHWQNSHVSSSEPLLNSVSSMLGRGLYFNQAQKHFQQLLLMEERATIARELHDSLAQVLSYLRIQLTLLKRSIPEDNATAQSIMADFSQALNDAYRQLRELLTTFRLTLQQADLPSALREMLDTLQNQTSAKLTLDCRLPTLALDAQMQVHLLQIIREAVLNAMKHANASEIAVSCVTAPDGNHTVYIRDNGIGIGEPKEPEGHYGLNIMRERAERLGGTLTFSQPSGGGTLVSISFRSAEGEESQLM
# modifications: SpdE-NarQ fusion protein
# Legend:
# [1] = system: Aer01 SpdE tandem PAS/dCache region (residues 37-287); assay: Thermofluor (thermal shift) assay, Aer01 SpdE; assay type: binding, Aeromonas veronii; conditions: 10 mM pure amino acid; for thermal shift (ΔTm) in words: replicate ΔTm data
# Description: (§1) Thermofluor Assay. The periplasmic portion of SpdE was cloned, expressed and purified in E. coli. Thermofluor assays were performed using a Thermo Fisher Scientific StepOnePlus Real-time PCR instrument. Each 20 μL sample contained 0.1 mg/mL SpdE protein, 4× SYPRO Orange dye, 165 mM NaCl, 80 mM Tris pH 7.5 and 10 mM ligand (free amino acid dissolved in water). All samples were done in triplicate and repeated 2-3 times on different days. All reagents and steps were performed at 4° C. and placed in 96 well PCR plates. The PCR plate was slowly heated (˜0.03° C./sec) from 4° C. to 80° C. in the StepOnePlus instrument and fluorescent measurements were taken every 8.5 sec. The resultant thermal shift curves were analyzed to find the inflexion points, which correspond to the melting temperature (Tm) of the protein (with or without ligand). Inflexion points were determined in Microsoft Excel by calculating the half way point between the minimum fluorescence value prior to fluorescence increase and the maximum fluorescence value. The Tm difference between protein with and without ligand was calculated and plotted to determine the thermal stability shift as a proxy for ligand binding.
# In order to identify SpdE ligands, a thermal shift assay was conducted using 96-well Biolog Phenotype MicroArray plates as a high-throughput approach to screen compounds for ligand candidates. Using heterologously expressed and purified tandem PAS/dCache region of the protein (residues 37-287), ˜200 compounds were screened for ones that conferred a significant shift in protein thermal stability (see Table 4). […] For each curve, the melting temperature (Tm) was determined (brown circles), which corresponds to the midpoint of protein unfolding. The ΔTm (difference between test Tm and water control Tm) was calculated for each amino acid condition.
# [2] = system: SpdE diguanylate cyclase activity in Aer01; assay: Intracellular cyclic di-GMP quantification; assay type: cell-based, Aeromonas veronii; conditions: WT Aer01, 1 mM amino acid, ~4 hrs, versus no ligand
# Description: Intracellular cyclic di-GMP quantification. […] Cultures were incubated, shaking, at 30° C. for 4 hours. Sample OD600 was measured and the entire volume pelleted. Sample pellets were resuspended in 300 μL ice cold extraction buffer (40/40/20 acetonitrile/methanol/water+0.1 N formic acid), iced for 30 min, then pelleted at maximum speed in tabletop microcentrifuge for 10 min. The supernatant was transferred to a new tube and stored at −80° until being vacuum concentrated until completely evaporated.
# Dried samples were resuspended in 100 μL Ultra Performance liquid chromatography-grade water and centrifuged for two minutes at 18,000×g (Eppendorf® Centrifuge 5242R). The debris-free supernatants were moved to LCMS Certified Clear Glass 12×32 mm screw neck max recovery vials (Waters®). Ten microliters of each sample were analyzed using LC-MS/MS on a Quattro Premier XE mass spectrometer coupled with an Acquity Ultra Performance LC system (Waters®). Cyclic di-GMP was detected with electrospray ionization using multiple reaction monitoring in negative-ion mode at m/z 689.16→344.31. […]
# In the case of SpdE, ligand binding to the PAS/Cache was hypothesized to regulate SpdE diguanylate cyclase activity, thereby altering intracellular levels of c-di-GMP. To test this, WT and ΔspdE Aer01 were incubated in the presence or absence of amino acid ligands for ˜4 hrs, then pelleted and lysed the cells to extract and quantify intracellular c-di-GMP.
# Aer01 [3] = assay type: cell-based, Aeromonas veronii; conditions: for exploration response: WT Aer01, 1 mM ligand versus WT without ligand, mean
# Description: Exploration Assay. Overnight cultures (TSB) of Aer01 Strains were pelleted (1 mL), and resuspended in 1 ml sterile EM. […] The cultures were incubated, shaking, at 30° C. for 3 hours. An aliquot of each culture was passed through a 0.2 μM filter (Corning® Costar® Spin-X® centrifuge tube filters) to generate cell-free supernatant. To a sterile 96-well plate round-bottom plate, 80 μL of unfiltered culture was added to each well to include five replicates for each condition. To another sterile 96-well plate round-bottom plate, 80 μL of the cell-free supernatant was added to each well to replicate the layout of the culture plate. Using a Rainin Liquidator™ 96-channel benchtop pipettor, 5 μL of the cell-free supernatant was pulled up into 20 μL Rainin pipette tips. These tips then were lowered down into the wells of the culture plate so the tips were submerged to half the depth of the culture volume in the wells. This set-up was incubated at room temperature for 30 min, during which time the cells in the culture can swim up into the supernatant in the pipette tips. After incubation, the contents of the tips were ejected into the wells of a sterile 96-well plate (Corning, flat-bottom, #3595) to which 195 μL of sterile TSB medium was added to each well. This plate was immediately placed in a FLUOstar Omega microplate reader (BMG Labtech, Offenburg, Germany) and growth curves monitored by measuring absorbance (600 nm) every 10 min for 12-16 hrs, with 30° C. incubation and constant shaking. The growth curves were plotted and the times at which the absorbance passed 0.5 was determined for each plot. The time difference between a particular condition and a reference condition (as indicated in FIG. 5C) represents the “exploration response” of Aer01 in that condition.
# An “exploration assay” was used to measure population-level motility. For this assay Aer01 was incubated in the presence/absence of amino acid ligand (1 mM) for˜4 hrs, then the culture was added to the wells of a 96-well plate and pipette tips filled with the cell-free supernatant of the same cultures was lowered into the wells (FIG. 13). During a 30 min incubation period the Aer01 cells in the wells swam up into the pipette tips. […] To quantify the number of cells in the pipette tips after the 30 min exploration time, the contents of the pipette tips were ejected into the wells of a 96-well plate containing rich media and growth curves were monitored. […] This time difference between conditions, “exploration response,” was calculated to compare across many strains and conditions (FIG. 12C).
# Aer01 [4] = assay type: cell-based, Aeromonas veronii
# Description: Live imaging and quantification of Aer01 motility. […] EM containing proline or valine (pH adjusted to 7.8 with HCl/NaOH) was added to the wells to generate the desired final concentrations of amino acid (0, 1 nM, 10 nM, 100 nM, 1 μM, or 1 mM) and cell densities of OD 0.1, each performed in triplicate. The tray was covered by parafilm and incubated at 30° C. for 5 hours. Cells were imaged between hour 5-6. Prior to imaging, bacterial samples were moved to a temperature-controlled box housing the microscope, heated to 30° C. 2 ul of bacteria from treatments were applied to a well slide (MP Biomedicals 10-well multitest slides #096041805), covered with a coverslip, and imaged immediately. Videos of bacteria were captured using a Nikon Eclipse Ti inverted microscope on the GFP channel using 20× magnification at 39 frames per second. Videos of treated bacteria were analyzed with particle tracking software (Parthasarathy, Nature Methods 9:724-236, 2012) using these settings: “objects” were identified using bpfilter 3, nsize 7, and gradobjsize 0. A standard threshold of 3.99-6 was applied, depending on the degree of background. Motile bacteria were defined as objects tracked over at least 1 s (39 frames) with a standard deviation in position of pixels/frame of at least 1.
# To do this, Aer01 was incubated in medium+/−ligand (ranging between 0 and 1 mM) then wet-mounted and imaged on an inverted microscope.
# Aer01 [5] = assay type: cell-based, Aeromonas veronii; remark: listed apart in the source
# Description: For light-sheet microscope-based imaging and determination of cellular swim speeds, overnight cultures (TSB) of strains (dTomato-tagged Aer01 and dTomato-tagged ΔspdE) were washed twice with sterile EM, as above. […] FC-EM was generated by collecting the flask EM of GF 5 or 6 dpf zebrafish larvae, filter-sterilizing and storing at 4° C. A glass cuvette was filled with culture and imaged on a custom-built light sheet fluorescence microscope, as previously described (Taormina et al., Biol. Bull. 223:7-20, 2012). The light sheet optically sections bulk samples in the center of the cuvette, so as not to constrain the motility of the imaged bacteria by surfaces. Movies in a single optical plane were captured for a duration of 20 seconds (frame rate of 30 frames/sec) with excitation light provided by a 561 nm solid state laser (Coherent Sapphire 20 mW; all strains expressed dTomato fluorescent protein). […] As above, particle tracking software, which uses a radial-symmetry-based algorithm, was used to analyze images (Parthasarathy, Nature Methods 9:724-726, 2012). The following parameters were used: bpfiltsize=7, nsize=7, gradobjsize=7, 1/nhood=true. […]
# Therefore, the cells were next imaged in a cuvette on a light sheet microscope where they would be recorded within a three-dimensional space and not impeded by surfaces. […]
# Aer01 [6] = assay: Biofilm assay (crystal violet); assay type: cell-based, Aeromonas veronii; conditions: WT Aer01, 1 mM ligand, 48 hrs
# Description: Biofilm Assay. […] To the wells of a sterile 96-well plate (Corning, flat-bottom, #3595), 150 μL of each resuspended culture was added, in triplicate. A blank control well was added for each condition using the appropriate uninoculated media. This plate was incubated at 30° C., stationary, for 48 hours. After incubation, the biofilms were quantified using a standard crystal violet biofilm staining procedure. […] Briefly, the supernatant was removed from each well, then the wells gently rinsed three times with 150 μL sterile EM. Then, 150 μL 0.1% crystal violet was added to each well and the plate was incubated at room temperature for 10 minutes, followed by five rinses with 150 μL sterile EM. To destain, 150 μL 95% ethanol was added to each well and the plate was incubated at room temperature for 10 minutes. Each well was mixed well and the contents transferred to a clean 96-well plate and the absorbance (570 nm) was read on a FLUOstar Omega microplate reader (BMG Labtech, Offenburg, Germany).
# [7] = system: Aer01 colonization of larval zebrafish gut; assay: Bacterial competitions in vivo (competitive index); conditions: GF zebrafish; for median CI (competitive index) of ΔspdE versus WT: ligand supplemented into inoculum and flask medium (1 mM proline)
# Description: Bacterial competitions in vivo. For in vivo bacterial competitions, strains (purified evolved isolates, or Aer01 genetic variants) were grown overnight in TSB from freezer stocks. 1 ml of the overnight cultures were pelleted (8,700 rcf, 2 min), then resuspended in 1 ml sterile EM. Competing strains were mixed, then added to flasks of 4 dpf GF (or CV fish) WT fish at ˜10^6 CFU/ml. For all competitions, sfGFP-tagged Aer01 was used as the “reference” strain. […] At 7 dpf, fish intestines were dissected as described above, and each intestine transferred into a 1.6 ml tube containing 500 μl sterile EM and ˜100 μl bullet beads, then bullet blended as described above. Homogenized samples were diluted appropriately in sterile EM, spread plated on TSA plates, incubated at 30° C. for 1-2 days, and the colonies counted. Strains were differentiated by fluorescence microscopy. Competitive index (CI) was calculated by dividing the strain ratio (test strain divided by reference strain) in the gut at the end of the competition by the strain ratio in the inoculum ((test/reference)gut/(test/reference)inoculum) (FIG. 1). The limit of detection is 5 CFU/gut; for samples were one strain was below the limit of detection, the abundance was set to 5 CFU in order to calculate a CI; this was the case for few of the samples.
# To test whether WT motility, and therefore immigration into the host, could be increased with addition of ligands, competitions were performed as previously described, this time supplementing the inoculum and flask medium with SpdE ligand.
# [8] = system: Aer01 immigration into GF zebrafish; assay: Migration rate experiments; assay type: in vivo; conditions: WT +/- valine
# Description: Migration rate experiments. Strains were grown, shaking, overnight in TSB, at 30° C. Overnight cultures were pelleted and washed in sterile EM, then diluted to 1:100 in sterile EM, and incubated at room temperature for ˜2 hrs. If amino acid SpdE ligands were tested, amino acids were added to the prepared inoculum and fish flasks before the 2 hr incubation. GF zebrafish (5 or 6 dpf) inoculated with the cultures to yield ˜10^5 CFU/ml. The fish were then split into replicate flasks containing 10 fish and 10 ml inoculated flask EM. An EM sample was taken and plated immediately to quantify CFU/ml of the inoculating strain. […] After 24-48 hr incubation, colonies on plates were counted.
# To more directly investigate differences in immigration rate, migration rate experiments were performed. Fish were mono-associated (inoculated with individual strains) via the EM, then 10 fish were dissected every 60 minutes, and the fraction of fish colonized at each time point was calculated (FIG. 3). […] This experiment assessed the ability of Aer01 variants to migrate into GF fish from the environment during initial colonization. […] After allowing 15 hrs for Aer01 to migrate from donor to recipient fish, the fish were dissected and determined the abundance of Aer01 in all fish within each flask (FIG. 6D).
# [9] = Thermofluor assay with Aer01 SpdE single residue variants; assay type: binding, Aeromonas veronii; conditions: single residue change versus wild-type Aer01 SpdE PAS/dCache
# Description: as §1, with “binding. […]” for “binding.”
# [10] = SpdE-NarQ chimeric sensor β-galactosidase reporter; assay type: cell-based, Escherichia coli; conditions: expected from sensitivity of SpdE-dependent responses
# Text: SpdE tandem PAS/dCache is a sensitive and specific sensor of particular amino acids. This domain is utilized for the design of novel biosensors of amino acid ligands by engineering chimeric reporter proteins fusing them to the signaling domain of an Escherichia coli protein, NarQ. NarQ is a nitrate/nitrite sensor which contains a C-terminal histidine kinase signaling domain. Here, the SpdE-NarQ hybrid protein includes the tandem PAS/dCache sensing domain (proximal and distal PAS/Cache domains) and both transmembrane domains of SpdE, and the HAMP and histidine kinase signaling domain of NarQ (FIG. 21A). When activated, the NarQ signaling domain auto-phosphorylates, then transfers the phosphoryl group to NarL, a transcriptional activator that binds nitrate-responsive promotors such as narG. In this system LacZ, a β-galactosidase, is under the control of the narG promoter, therefore activation of NarL results in expression of LacZ and increased β-galactosidase activity. The β-galactosidase activity is quantified via a colorimetric assay. Based on the sensitivity of SpdE-dependent responses in the assays disclosed herein, this hybrid protein is expected to detect ligand concentrations of 10 μM or less. […] Therefore, β-galactosidase activity will decrease with increasing ligand concentrations (e.g., FIG. 21B).
molecule,measurement,setting,value
"NCC(=O)O [Glycine, glycine]",thermal shift (ΔTm) in words,[1],negative amino acid control
same,intracellular c-di-GMP,[2],no change
C[C@H](N)C(=O)O [alanine],thermal shift (ΔTm) in words,[1],smaller degree
CC[C@H](C)[C@H](N)C(=O)O [isoleucine],thermal shift (ΔTm) in words,[1],largest shifts
CC(C)C[C@H](N)C(=O)O [leucine],thermal shift (ΔTm) in words,[1],smaller degree
CSCC[C@H](N)C(=O)O [methionine],thermal shift (ΔTm) in words,[1],smaller degree
O=C(O)[C@@H]1CCCN1 [proline],ΔTm (difference between test Tm and water control Tm),[1],~20 degrees
same,thermal shift (ΔTm) in words,[1],largest shifts
same,intracellular c-di-GMP,[2],significantly lower
same,motility response in exploration assay,"Aer01 [3]; WT Aer01, 100 nM proline",a response was measured
same,exploration response,Aer01 [3],28.9 min
same,exploration response across proline concentrations,"Aer01 [3]; WT Aer01, between 100 nM and 1 mM proline",dose-dependent response trend
same,motility,Aer01 [4],little increase
same,number of motile cells,Aer01 [4],striking increase
same,cellular velocity (average of median values),"Aer01 [5]; WT Aer01, 1 mM proline (12.6 μm/sec without ligand)",24.5 μm/sec
same,cellular velocity change,"Aer01 [5]; ΔspdE, 1 mM proline",did not increase
same,biofilm formation,Aer01 [6],more robust biofilms in the absence of ligand
same,CI of ΔspdE versus WT,[7]; 100 nM and 10 nM proline,reduced CI but to a much lesser extent
same,median CI (competitive index) of ΔspdE versus WT,[7],2
C[C@@H](O)[C@H](N)C(=O)O [threonine],thermal shift (ΔTm) in words,[1],smaller degree
CC(C)[C@H](N)C(=O)O [valine],thermal shift (ΔTm) in words,[1],largest shifts
same,intracellular c-di-GMP,[2],significantly lower
same,exploration response,Aer01 [3],13.2 min
same,number of motile cells,"Aer01 [4]; WT Aer01, 1 μM and 1 mM ligand",striking increase
same,motility,"Aer01 [4]; WT Aer01, below 1 μM ligand",little increase
same,biofilm formation,Aer01 [6],more robust biofilms in the absence of ligand
same,median CI (competitive index) of ΔspdE versus WT,[7],7
same,immigration rate of WT Aer01 into fish,[8],migrated into the fish faster
B1,ligand binding (thermal shift),[9],reduction in ligand binding
B2,ligand binding (thermal shift),[9],reduction in ligand binding
B3,detectable ligand concentration,[10],≤ 10 µM
